# Measurements reported in patent US10945972B2, “Particulate materials” (Nektar Therapeutics, priority 2002, dated 2021).
# Where a name gives a salt, the structure may show the parent alone.
# Key:
# Type in all cases: physicochemical
# [1] = Inverse gas chromatography surface energy (Example 1); details: 303K; for ΔGA (kJ/mol) Chloroform: probe chloroform; for ΔGA (kJ/mol) Toluene: probe toluene; for ΔGA (kJ/mol) Acetone: probe acetone; for ΔGA (kJ/mol) Dioxane: probe dioxane; for ΔGA (kJ/mol) Ethyl acetate: probe ethyl acetate
# Excerpt: For TBS and FHBr powders, IGC was done using a Hewlett Packard Series 6890 instrument which was specifically modified for IGC measurements by Surface Measurement Systems Ltd (Manchester, UK). The IGC method is described in detail by Tong et al. 2001. (Tong H. H. Y., B. Y. Shekunov, P. York, A. H. L. Chow, 2001. Pharm. Res. 18, 852.) Triplicate measurements in separate packed columns were made. […] The γS^D and ΔGA values were obtained at 303K.
# [2] = Particle size by Helos/Rodos laser diffraction (Example 1); details: geometric projection-equivalent volume mean diameter
# Method: (§1) PSD measurements were performed using firstly, AEROSIZER® time-of-flight instrument equipped with AERO-[…]® (TSI Inc., Minneapolis. USA) and secondly, laser diffraction sensor Helos with dry-powder air-dispersion system Rodos (Sympatec GmbH. Germany). The volume mean particle diameter, VMD, was obtained for both instruments using software options. In the general case of non-spherical particles, these instruments cannot provide the exact value of VMD, however, the time-of-flight technique gives an aerodynamic-equivalent particle diameter, whereas the laser diffraction method provides the geometric projection-equivalent diameter. These diameters afford the complementary information on PSD and therefore can be used for comparative size analysis.
# [3] = Particle size by AeroSizer time-of-flight (Example 1); details: aerodynamic-equivalent volume mean diameter
# Method: as §1
# [4] = Laser diffraction HELOS/RODOS of TBS (Example 8); details: for Sympatec D4, 3 (μm): 2 bar
# Method: A small amount of TBS powder was analysed using a laser diffraction RODOS/VIBRI dispersing system (HELOS/RODOS, Sympatec GmbH, Clausthal-Zellerfeld, Germany). The instrument consisted of a laser sensor HELOS and a RODOS dry-powder air-dispersion system (Sympatec GmbH, Clausthal-Zellerfeld, Germany). Different measurement ranges of the laser sensor were provided by interchangeable objectives R1 (0.1-35 μm) and R2 (0.25-87.5 μm). The rate of powder dispersion was controlled by adjusting the pressure of the compressed air flow. A pressure of 2 bar was sufficient to achieve deagglomeration of primary particles without attrition.
# [5] = AEROSIZER time-of-flight of TBS (Example 8)
# Method: The TBS samples were also analysed using an AEROSIZER™ (Amherst Process Instruments, Amherst, Mass., USA), provided with pulse jet disperser, the AERODISPERSER™, to introduce the powders to the instrument. The measurement range of the AEROSIZER™ is nominally from 0.2 to 200 μm of aerodynamic diameter with the standard 750 μm diameter tapered nozzle. The micronized and SEDS™ TBS samples were analyzed for 300 seconds in triplicate using normal deagglomeration conditions, feed rate (5000 particles per second) and medium shear force (0.5 psi).
# [6] = Differential scanning calorimetry (Example 8); details: DSC, 10° C. min^−1
# Method: Prior to sample analysis, a baseline was obtained which was used as a background. […] Temperature and enthalpy were calibrated with the standard materials indium (melting point=156.6° C.) and zinc (melting point=419.5° C.). Samples (1-10) were accurately weighed into pierced, crimped aluminium pans and heated at 10° C. min^−1 over a heating range of 25-290° C. under a nitrogen purge. A chiller unit was used in conjunction with the calorimeter to attain the lower temperatures.
# [7] = Isothermal microcalorimetry, TAM with RH ramp (Example 8); details: 25° C., RH ramp 0 to 90% at 3% RH/hr
# Method: A Thermal Activity Monitor (TAM, model 2277; Thermometric A B, Jrflla, Sweden) was used to measure the calorimetric heat flow (μW) vs. % RH profile of each sample. A RH-perfusion cell (Model 2255-120) accessory for the TAM was used to control RH within the sample vessel. The carrier gas, dry N2, was flowed at a constant rate (1.48 cm^3/min). All experiments were performed at 25° C. About 100 to 105 mg accurately weighed of each powder were placed in a stainless steel ampoule, attached to the RH perfusion cell, and then dried under 0% RH until a stable heat flow signal was reached (e.g., a signal within the range of −1 to +1 μW). The RH was then increased in a linear ramp from 0 to 90% over the following 30 hours (i.e., 3% RH/hr). The heat flow arising from interactions of water vapor with the solid sample was measured as a function of time. Since RH changed with time in a linear fashion, the heat flow was also known as a function of RH.
# The TAM measures the total heat flow in power, P, produced from either a physical or chemical reaction. In this study, the calorimetric power is proportional to the rate of moisture sorption or desorption, crystallization, and/or other processes. Exothermic events are measured as a deflection in the positive y-axis direction. Although crystallization is an exothermic process, it can be observed as a net endothermic process. During crystallization, there is an exotherm due to crystallization and a simultaneous endotherm due to desorption of previously sorbed moisture. The TAM profile gives the resultant of these processes.
# [8] = Inverse gas chromatography of TBS (Example 8)
# Method: An empty GC column was uniformly packed with the powder of interest (TBS). Pre-silanized commercially available straight glass columns of 30 cm length with a 3 mm internal diameter were used in this investigation. The silanation procedure was necessary to minimize active sites on the inner glass surfaces, which strongly interact with polar probes. Each column was packed at the detector end with a small amount of silanised glass wool, was clipped to a stand and powder was added through a glass funnel with the aid of a mechanical column packer (tapping) to improve powder flow and remove any air gaps. […] A. Hewlett Packard 6890 Series Gas Chromatograph (GC) (Hewlett Packard, Penna, USA) oven equipped with an autosampler was used to control the solvent temperature. The 6890 GC data acquisition system was used to record data from a thermal conductivity detector (TCD) and flame ionisation detector (FID) with the instrument modified for IGC by Surface Measurement Systems (SMS), Manchester, UK. The combination of detectors allowed sensitive analysis of both organic vapour elution and water (although RH was not raised above 0% for these experiments).
# The whole system was fully automated by control software (SMS iGC Controller v1.3) and the data analyzed using SMS iGC Analysis macros. Prior to analysis, each column was equilibrated at 30° C. and 0% relative humidity (RH) for 5 hours by passing dry helium gas through the column. Helium gas was also used as the carrier gas. Hydrogen and compressed air flow rates were set at 40 and 450 ml min respectively for the FID. The chromatograph injection port was maintained at 80° C., TCD detector at 150° C. and the FID detector at 150° C. Column temperature was set at 30° C. throughout analysis. Data were obtained by flowing helium gas at 10 ml min^−1 through the sinalized glass column packed with a known weight of powdered material and injecting small amounts (concentration P/Po=0.05) of a range of probe vapors with different polarities. The retention times of the probes were measured using SMS iGC Controller v1.3 software, at infinite dilution or near zero surface coverage (equivalent to 10^−4-10^−7 μl of liquid) where retention is independent of the quantity of probe injected. For each sample, two columns were prepared and analysed by employing a method based on standard settings, which allows the precise control and measurement of experimental variables. This is essential in producing meaningful results. The data were used to calculate the dispersive and non-dispersive forces acting at TBS particle surfaces using the method developed by Schultz and co-workers (J. Schultz, L. Lavielle and C. Martin. The role of the interface in carbon fibre-epoxy composites, J. Adhesion, 23, 45-60 (1987)).
# [9] = AEROFLOW powder avalanching (Example 8); details: listed as Micronized
# Method: An AEROFLOW™ powder avalanching apparatus (Amherst Process Instruments, API, Amherst, USA) was employed to analyze the dynamic avalanching behaviour of micronized and SC processed TBS samples. The AEROFLOW™ apparatus consists of a transparent rotating drum with a port at the front. A white light source is positioned in front of the drum and a masked array of photocells is behind the drum. To measure avalanching, 50 ml of the drug powder was added to the drum, which is about 15% of its total volume to ensure good powder mixing during the operation. As the drum rotates, the powder bed is carried upwards until an unstable state is reached and an avalanche occurs.
# The time between successive avalanches was recorded by the projection of the light beam through the drum onto the photocell array. The photocells generated a voltage dependent on the amount of light falling on the cells and the area of unmasked photocells shielded from the light source by the powder. The voltage output (transmitted light intensity) was recorded by a computer, which translates the output as powder movement using a technique disclosed in B. H. Kaye. Characterizing the flowability of a powder using the concepts of fractal geometry and chaos theory, Part. Part. Charact. 14: 53-66 (1997). Each TBS sample was tested in duplicate and mean avalanche time and irregularity (scatter) of avalanches were recorded.
# [10] = AFM adhesion force of particles (Example 10); details: for adhesion force per unit area: following correction for surface area; for initial adhesion force for individual particles: in 2H 3H perfluoropentane
# Method: The example assessed the force of adhesion of particles of salbutamol sulfate produced using a SEDS™ processes compared to the same compound in micronized form. Conventional AFM analysis was used. Particles of the samples were mounted onto AFM probes and the adhesion force per unit area to a freshly cleaved highly oriented pyrolytic graphite substrate (HOP G, Agar Scientific, Essex, UK) in a liquid (2H 3H perfluoropentane) environment was determined. The contact area involved in the interaction was assessed and related to the force measurements.
# [11] = listed as micronized terbutaline sulphate
molecule,measurement,setting,value
"CC(Cc1ccc(O)cc1)NCC(O)c1cc(O)cc(O)c1 (stereo not drawn) [FHBr Micronised, fenoterol hydrobromide, reference compound]",γs^D (mJ/m^2),[1]; hydrobromide,48.53 mJ/m^2
same,ΔGA (kJ/mol) Chloroform,[1]; hydrobromide,0.69 kJ/mol
same,ΔGA (kJ/mol) Toluene,[1]; hydrobromide,4.77 kJ/mol
same,VMD (μm) (laser diffraction),[2]; hydrobromide,2.34 μm
same,VMD (μm) (Time of flight),[3],1.7 μm
"CC(Cc1ccc(O)cc1)NCC(O)c1cc(O)cc(O)c1 (stereo not drawn) [FHBr SEDS, fenoterol hydrobromide]",γs^D (mJ/m^2),[1]; hydrobromide,49.87 mJ/m^2
same,ΔGA (kJ/mol) Acetone,[1],13.15 kJ/mol
same,ΔGA (kJ/mol) Chloroform,[1]; hydrobromide,0.63 kJ/mol
same,ΔGA (kJ/mol) Dioxane,[1],15.32 kJ/mol
same,ΔGA (kJ/mol) Ethyl acetate,[1],17.48 kJ/mol
same,ΔGA (kJ/mol) Toluene,[1]; hydrobromide,3.86 kJ/mol
same,VMD (μm) (laser diffraction),[2]; hydrobromide,3.55 μm
same,VMD (μm) (Time of flight),[3],1.7 μm
"CC(C)(C)NCC(O)c1cc(O)cc(O)c1 (stereo not drawn) [TBS 1, terbutaline sulfate]","Sympatec D4, 3 (μm)",[4],3.22 μm
same,"Aerosizer D4, 3 (μm)",[5],3.31 μm
same,Enthalpy of Fusion,[6],127.12 J/g
same,Enthalpy of Fusion,[6]; listed as TBS1,127.12 J/g
same,RH of thermal event in TAM profile,[7],No exothermic or endothermic peaks were observed
same,KA,[8],0.761
same,γs^D mJm^−2,"[8]; 30° C., 0% RH",57.37 mJm^−2
same,−ΔGA^SP (kJ/mol) Acetone,[8]; probe acetone,13.41 kJ/mol
same,−ΔGA^SP (kJ/mol) Ethyl acetate,[8]; probe ethyl acetate,16.65 kJ/mol
same,−ΔGA^SP (kJ/mol) Toluene,[8]; probe toluene,3.66 kJ/mol
"CC(C)(C)NCC(O)c1cc(O)cc(O)c1 (stereo not drawn) [TBS 3, terbutaline sulfate]","Sympatec D4, 3 (μm)",[4],1.99 μm
same,"Aerosizer D4, 3 (μm)",[5],6.69 μm
same,Enthalpy of Fusion,[6],31.35 J/g
"CC(C)(C)NCC(O)c1cc(O)cc(O)c1 (stereo not drawn) [TBS 4, terbutaline sulfate]","Sympatec D4, 3 (μm)",[4],4.75 μm
same,"Aerosizer D4, 3 (μm)",[5],15.53 μm
same,Enthalpy of Fusion,[6],40.98 J/g
"CC(C)(C)NCC(O)c1cc(O)cc(O)c1 (stereo not drawn) [TBS 5, terbutaline sulfate]","Sympatec D4, 3 (μm)",[4],4.84 μm
same,"Aerosizer D4, 3 (μm)",[5],11.44 μm
same,Enthalpy of Fusion,[6],57.69 J/g
"CC(C)(C)NCC(O)c1cc(O)cc(O)c1 (stereo not drawn) [TSB Micronised, terbutaline sulphate, reference compound]","Sympatec D4, 3 (μm)",[4]; [11],3.0 μm
same,"particle size, 90% less than",[4]; [11],less than 5 μm
same,γs^D (mJ/m^2),[1],58.61 mJ/m^2
same,ΔGA (kJ/mol) Acetone,[1],12.57 kJ/mol
same,ΔGA (kJ/mol) Chloroform,[1],1.79 kJ/mol
same,ΔGA (kJ/mol) Dioxane,[1],15.96 kJ/mol
same,ΔGA (kJ/mol) Ethyl acetate,[1],16.01 kJ/mol
same,ΔGA (kJ/mol) Toluene,[1],3.42 kJ/mol
same,RH of thermal event in TAM profile,[7]; listed as micronized TBS,about 79 % RH
same,VMD (μm) (laser diffraction),[2],3.04 μm
same,VMD (μm) (Time of flight),[3],2.7 μm
same,Irregularity of flow,[9]; 100 sec/rev,1.28 s
same,Mean time to avalanche,[9]; 100 sec/rev,3.62 s
same,Irregularity of flow,[9]; 145 sec/rev,2.39 s
same,Mean time to avalanche,[9]; 145 sec/rev,5.72 s
salbutamol sulfate [SEDS™ produced material],adhesion force per unit area,[10],13.52 nN/μm^2
same,initial adhesion force for individual particles,[10],4.21 nN
"salbutamol sulfate [micronized material, reference compound]",adhesion force per unit area,[10],100.91 nN/μm^2
same,initial adhesion force for individual particles,[10],15.77 nN
